In PMC7766697, “Toxicological Screening of Four Bioactive Citroflavonoids: In Vitro, In Vivo, and In Silico Approaches” (Molecules, 2020):
Read-outs that look alike come from different tables or passages of the source.

How the values were obtained:
VERO cells = assay: MTT-based cytotoxicity assay in VERO cells; format: cell-based, green Monkey; conditions: 48 h, 125 to 750 µg/mL (QRT effect at 250–750 µg/mL)
Protocol: (§1) VERO and MDCK cell lines were acquired from American Type Culture Collection (ATCC, Manassas, VA, USA). […] In vitro cytotoxicity assay was performed on Madin-Darby Canine Kidney Epithelial Cells (MDCK) and green Monkey Kidney Cells (VERO) by MTT-based assay. Briefly, cells were seeded in 96-well plates at a density of 2.5 × 10^3 cells/well. […] The absorbance was measured after 45 min using a microplate reader (Multiskan Asent®) at a wavelength of 550 nm. The criteria for categorizing cytotoxicity against MDCK and VERO cells are based on the U.S. National Cancer Institute (NCI). The criteria comprise as follow: […] All results were expressed as mean ± standard error. The results from the in vivo and in vitro experiments were analyzed using software Origin® 8.0. […] The IC50 (half inhibitory concentration) values were calculated in Origin software®, (Northampton, MA, USA) and one-way ANOVA analysis was compared with cisplatin as the control.

MDCK cells = assay: MTT-based cytotoxicity assay in MDCK cells; format: cell-based, Canine; conditions: 48 h, 125 to 750 µg/mL (QRT effect at 250 and 500 µg/mL)
Protocol: as §1

Wistar rats [1] = assay: Acute oral toxicity, OECD Test No. 423 (mortality, signs, LD50, body weight); format: in vivo; conditions: oral 300 mg/kg, days 7 and 10
Protocol: Female Wistar rats (250 g b.w.) were used. These animals were obtained from Bioterium from División de Ciencias de la Salud at the Universidad de Quintana Roo. They were maintained under standard environmental conditions (22 ± 3 °C, 12 h/12 h light/dark cycle), and free access to standard rodent diet and water ad libitum. All animal procedures were conducted under our Federal Regulations for Animal Experimentation and Care and were approved by the Institutional Animal Care and Use Committee of the “Universidad Juárez Autónoma de Tabasco” university (Code:2017-001, Approved: October 2017). Rats were acclimatized for 1 week before the start of experimental procedures.
The half lethal dose (LD50) was estimated using the fixed-dose method described in OECD Guidelines for the Testing of Chemicals (Test No. 423: Acute Oral Toxicity-Class Method; OECD, 2001). […] This method allowed a step-by-step assay according to the chosen dose to begin the experiment. Subsequently, depending on the presence or absence of mortality, the decision to continue within the next step is taken, so fewer experimental animals should be used.
(§2) Rats used for this experiment were fasted for 8 h and were organized into two groups of three rats for each dose and each flavonoid. Likewise, the control group received isotonic 0.9% sodium chloride solution (dose: 5 mL/kg). All rats were closely observed for toxic symptoms and behavioral changes (sedation, hyperactivity, writhing, pruritus, feeding and drinking habits, general morphological changes, and bite legs) for 30 min and periodically 24 h post-administration. Animals were observed daily (14 days) and mortality rate recorded. A LD50 was estimated according to criteria of OECD guide 423.
The rats’ body weight in each group was determined and recorded before the treatment initiation and after 14 days. Changes in the body weight at the end of the 14 days were calculated. Once observation time was completed and to detect any adverse effect, blood samples were collected by cardiac puncture after the previous fasting of 8 h. […] In addition, organ weight was determined.

Wistar rats [2] = format: in vivo; conditions: rats, after 14 days
Protocol: as §2
The rats’ body weight in each group was determined and recorded before the treatment initiation and after 14 days. Changes in the body weight at the end of the 14 days were calculated. Once observation time was completed and to detect any adverse effect, blood samples were collected by cardiac puncture after the previous fasting of 8 h. For this purpose, rats were anesthetized by intraperitoneally 50 mg/kg sodium pentobarbital. The liver was carefully extracted, rinsed in normal saline, drained on blotting paper, and carefully examined for tissue lesions. In addition, organ weight was determined.
Rat blood samples were analyzed by a hematology auto-analyzer system (Sysmex XS-1000i®, SYSMEX®, Oak Ridge, TN, USA). The parameters quantified on this stage were: blood count-packed cell volume (PCV), red blood cell (RBC) count, hemoglobin (Hb), platelet count, white blood cell (WBC) count, mean cell hemoglobin concentration (MCHC), mean red cell volume (MCV), mean cell hemoglobin (MCH), prothrombin time (PT), and activated partial thromboplastin time (aPTT).

Wistar rats [3] = conditions: rats; for ALB (albumin) / ALB/GL Ratio / ALT / AST / DB (direct bilirubin) / GL (globulin) / GLU (glucose) / IB (indirect bilirubin) / TB (total bilirubin) / TP (total protein): after 14 days, plasma
Sprague Dawley rats = tested on: Sprague Dawley rats; set-up: method as in PMID 30991075; conditions: early report; cited from earlier work
Sprague-Dawley rats = tested on: Sprague-Dawley rats; set-up: method as in PMID 28662177; conditions: sub-chronic oral, 13 weeks, cited from earlier work

## COc1ccc([C@@H]2CC(=O)c3c(O)cc(O[C@@H]4O[C@H](CO[C@@H]5O[C@@H](C)[C@H](O)[C@@H](O)[C@H]5O)[C@@H](O)[C@H](O)[C@H]4O)cc3O2)cc1O [HESP, hesperidin]
VERO cells
  percentage viability / growth of cells: did not change the percentage of growth
MDCK cells
  percentage viability / growth of cells: did not change the percentage of growth
Wistar rats [1]
  weight gain vs control: considerable weight gain differences
Wistar rats [2]; oral 300 mg/kg
  APTT: 28.53 ± 4.31 s
  Basophils: 2.13±1.74 103/µL
  Eosinophils: 3.60±0.76 103/µL
  Erythrocytes: 7.90±0.30 106/µL
  Hb: 14.20 ± 0.37 g/dL
  Hto: 44.96±0.91%
  Leukocytes: 4.50±0.89 103/µL
  Lymphocytes: 72.27±4.36 103/µL
  MCH: 18.00 ± 0.24 pg
  MCHC: 31.56 ± 0.64 g/dL
  MCV: 57.06 ± 1.87 fL
  Monocytes: 7.07±1.50 103/µL
  PT: 17.86 ± 0.40 s
  Platelets: 720.00±125.23 105/µL
  RBCDW: 17.00±0.61%
Wistar rats [2]; oral 2000 mg/kg
  APTT: 32.53 ± 3.93 s
  Basophils: 0.00±0.00 103/µL
  Eosinophils: 3.67±0.54 103/µL
  Erythrocytes: 8.04±0.22 106/µL
  Hb: 14.20 ± 0.36 g/dL
  Hto: 43.26±0.89%
  Leukocytes: 6.68±0.72 103/µL
  Lymphocytes: 77.33±3.24 103/µL
  MCH: 17.70 ± 0.24 pg
  MCHC: 32.83 ± 0.35 g/dL
  MCV: 53.86 ± 0.37 fL
  Monocytes: 7.13±1.15 103/µL
  PT: 17.73 ± 0.50 s
  Platelets: 628.66±28.31 105/µL
  RBCDW: 17.83±1.50%
Wistar rats [3]; oral 300 mg/kg
  ALB (albumin): 4.15 ± 0.20 g/dL
  ALB/GL Ratio: 2.36 ± 0.101
  ALT: 33.78 ± 1.30 IU/L
  AST: 126.00 ± 13.18 IU/L
  DB (direct bilirubin): 0.020 ± 0.005 mg/dL
  GL (globulin): 1.76 ± 0.069 g/dL
  GLU (glucose): 155.33 ± 18.71 mg/dL
  IB (indirect bilirubin): 0.029 ± 0.003 mg/dL
  TB (total bilirubin): 0.051 ± 0.002 mg/dL
  TP (total protein): 5.91 ± 0.25 g/dL
Wistar rats [3]; oral 2000 mg/kg
  ALB (albumin): 4.20 ± 0.22 g/dL
  ALB/GL Ratio: 2.38 ± 0.270
  ALT: 41.19 ± 2.83 IU/L
  AST: 226.65 ± 44.80 IU/L
  DB (direct bilirubin): 0.018 ± 0.005 mg/dL
  GL (globulin): 1.80 ± 0.108 g/dL
  GLU (glucose): 192.06 ± 12.73 mg/dL
  IB (indirect bilirubin): 0.046 ± 0.010 mg/dL
  TB (total bilirubin): 0.060 ± 0.06 mg/dL
  TP (total protein): 5.99 ± 0.11 g/dL
Wistar rats [3]; oral, doses tested, more evident at NAR 300 and 2000 mg/kg and NARGE 300 mg/kg
  glucose values vs control: slightly amended glucose values
Sprague Dawley rats
  acute oral LD50: 4837.5 mg/kg
Sprague-Dawley rats; 1000 mg/kg
  weight gain: did at 1000 mg/kg
Sprague-Dawley rats; 250 and 500 mg/kg
  weight gain: did not modify weight gain
